Laboratory results as given in PubChem BioAssay AID1963833 (Molecular Pharmacology Branch, DTP, NCI, 2024).

Test system: 883617-216-R-J1-PDC complex spheroid viability
Experiment: Anticancer human tumor 883617-216-R-J1-PDC patient-derived bladder carcinoma cell line growth inhibition [POLQ]
Conditions: for IC50: curve of first compound; for viability, T/C: stronger effect = lower value
Procedure, shortened: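 Three-cell-type spheroids modelling solid tumor plus stroma served as the readout system; POL inhibitors were tested individually and in combination, concentration ranges set by clinical Cmax where known.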

[1] = second compound 0.0316 µM, first compound 0.0316 µM
[2] = second compound 0.0316 µM, first compound 0.1 µM
[3] = second compound 0.0316 µM, first compound 0.316 µM
[4] = second compound 0.0316 µM, first compound 1 µM
[5] = second compound 0.0316 µM, first compound 3.16 µM
[6] = second compound 0.0316 µM, first compound 10 µM
[7] = second compound 0.1 µM, first compound 0.0316 µM
[8] = second compound 0.1 µM, first compound 0.1 µM
[9] = second compound 0.1 µM, first compound 0.316 µM
[10] = second compound 0.1 µM, first compound 1 µM
[11] = second compound 0.1 µM, first compound 3.16 µM
[12] = second compound 0.1 µM, first compound 10 µM
[13] = second compound 0.316 µM, first compound 0.0316 µM
[14] = second compound 0.316 µM, first compound 0.1 µM
[15] = second compound 0.316 µM, first compound 0.316 µM
[16] = second compound 0.316 µM, first compound 1 µM
[17] = second compound 0.316 µM, first compound 3.16 µM
[18] = second compound 0.316 µM, first compound 10 µM
[19] = second compound 1 µM, first compound 0.0316 µM
[20] = second compound 1 µM, first compound 0.1 µM
[21] = second compound 1 µM, first compound 0.316 µM
[22] = second compound 1 µM, first compound 1 µM
[23] = second compound 1 µM, first compound 3.16 µM
[24] = second compound 1 µM, first compound 10 µM
[25] = second compound 3.16 µM, first compound 0.0316 µM
[26] = second compound 3.16 µM, first compound 0.1 µM
[27] = second compound 3.16 µM, first compound 0.316 µM
[28] = second compound 3.16 µM, first compound 1 µM
[29] = second compound 3.16 µM, first compound 3.16 µM
[30] = second compound 3.16 µM, first compound 10 µM
[31] = second compound 10 µM, first compound 0.0316 µM
[32] = second compound 10 µM, first compound 0.1 µM
[33] = second compound 10 µM, first compound 0.316 µM
[34] = second compound 10 µM, first compound 1 µM
[35] = second compound 10 µM, first compound 3.16 µM
[36] = second compound 10 µM, first compound 10 µM
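Also: spheroids exposed to compounds for seven days before readout.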
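For viability, T/C in this document: 100% = DMSO vehicle control viability.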

Compound: C#Cc1c(F)ccc2cc(O)cc(-c3ncc4c(N5CC6CCC(C5)N6)nc(OCC56CCCN5CC(F)C6)nc4c3F)c12 (stereo not drawn) + Cc1cccc(N(C)C(=O)C2C(O)CCN2c2nc(C)cc(C(F)(F)F)c2C#N)c1
- IC50 (second compound 0.0316 µM): > 10 µM
- IC50 (second compound 0.1 µM): > 10 µM
- IC50 (second compound 0.316 µM): > 10 µM
- IC50 (second compound 1 µM): > 10 µM
- IC50 (second compound 3.16 µM): > 10 µM
- IC50 (second compound 10 µM): > 10 µM
- viability, T/C [1]: 98.1%
- viability, T/C [2]: 109%
- viability, T/C [3]: 97.7%
- viability, T/C [4]: 95.1%
- viability, T/C [5]: 86.8%
- viability, T/C [6]: 70.1%
- viability, T/C [7]: 98%
- viability, T/C [8]: 104%
- viability, T/C [9]: 109%
- viability, T/C [10]: 89.8%
- viability, T/C [11]: 86.2%
- viability, T/C [12]: 81.4%
- viability, T/C [13]: 108%
- viability, T/C [14]: 101%
- viability, T/C [15]: 110%
- viability, T/C [16]: 100%
- viability, T/C [17]: 80.6%
- viability, T/C [18]: 77.6%
- viability, T/C [19]: 104%
- viability, T/C [20]: 99%
- viability, T/C [21]: 106%
- viability, T/C [22]: 89.9%
- viability, T/C [23]: 86.5%
- viability, T/C [24]: 72.2%
- viability, T/C [25]: 103%
- viability, T/C [26]: 101%
- viability, T/C [27]: 97.8%
- viability, T/C [28]: 94.5%
- viability, T/C [29]: 81.5%
- viability, T/C [30]: 78%
- viability, T/C [31]: 115%
- viability, T/C [32]: 102%
- viability, T/C [33]: 104%
- viability, T/C [34]: 106%
- viability, T/C [35]: 87.7%
- viability, T/C [36]: 76.2%

Compound: C=CC(=O)N1CCN(c2nc(=O)n(-c3c(C)ccnc3C(C)C)c3nc(-c4c(O)cccc4F)c(F)cc23)C(C)C1 (stereo not drawn) + Cc1cccc(N(C)C(=O)C2C(O)CCN2c2nc(C)cc(C(F)(F)F)c2C#N)c1
- IC50 (second compound 0.0316 µM): > 10 µM
- IC50 (second compound 0.1 µM): > 10 µM
- IC50 (second compound 0.316 µM): > 10 µM
- IC50 (second compound 1 µM): > 10 µM
- IC50 (second compound 3.16 µM): > 10 µM
- IC50 (second compound 10 µM): > 10 µM
- viability, T/C [1]: 72.4%
- viability, T/C [2]: 66.9%
- viability, T/C [3]: 75.6%
- viability, T/C [4]: 84.9%
- viability, T/C [5]: 84.2%
- viability, T/C [6]: 73.4%
- viability, T/C [7]: 74.2%
- viability, T/C [8]: 79.3%
- viability, T/C [9]: 75.6%
- viability, T/C [10]: 80.8%
- viability, T/C [11]: 79.2%
- viability, T/C [12]: 81.3%
- viability, T/C [13]: 80.2%
- viability, T/C [14]: 62%
- viability, T/C [15]: 72%
- viability, T/C [16]: 82.8%
- viability, T/C [17]: 85.1%
- viability, T/C [18]: 87.2%
- viability, T/C [19]: 71.4%
- viability, T/C [20]: 66.2%
- viability, T/C [21]: 67.3%
- viability, T/C [22]: 83.2%
- viability, T/C [23]: 90.6%
- viability, T/C [24]: 79.9%
- viability, T/C [25]: 65%
- viability, T/C [26]: 59.8%
- viability, T/C [27]: 68.6%
- viability, T/C [28]: 76.1%
- viability, T/C [29]: 100%
- viability, T/C [30]: 78.3%
- viability, T/C [31]: 78.3%
- viability, T/C [32]: 77.3%
- viability, T/C [33]: 84%
- viability, T/C [34]: 86.6%
- viability, T/C [35]: 101%
- viability, T/C [36]: 82.7%

Compound: CC1COCCN1c1cc(-c2ccnn2C)c2ccnc(-c3ccn[nH]3)c2n1 (stereo not drawn) + Cc1cccc(N(C)C(=O)C2C(O)CCN2c2nc(C)cc(C(F)(F)F)c2C#N)c1
- IC50 (second compound 0.0316 µM): 0.205 µM
- IC50 (second compound 0.1 µM): 0.291 µM
- IC50 (second compound 0.316 µM): 0.273 µM
- IC50 (second compound 1 µM): 0.257 µM
- IC50 (second compound 3.16 µM): 0.204 µM
- IC50 (second compound 10 µM): 0.334 µM
- viability, T/C [1]: 89.1%
- viability, T/C [2]: 61.4%
- viability, T/C [3]: 43.2%
- viability, T/C [4]: 34%
- viability, T/C [5]: 31.7%
- viability, T/C [6]: 29.4%
- viability, T/C [7]: 72.7%
- viability, T/C [8]: 59.1%
- viability, T/C [9]: 53.2%
- viability, T/C [10]: 35.7%
- viability, T/C [11]: 29.9%
- viability, T/C [12]: 34.7%
- viability, T/C [13]: 83.6%
- viability, T/C [14]: 63.1%
- viability, T/C [15]: 48%
- viability, T/C [16]: 39.3%
- viability, T/C [17]: 32.9%
- viability, T/C [18]: 30.9%
- viability, T/C [19]: 83.2%
- viability, T/C [20]: 66.1%
- viability, T/C [21]: 48.1%
- viability, T/C [22]: 32.1%
- viability, T/C [23]: 32.6%
- viability, T/C [24]: 30.3%
- viability, T/C [25]: 72%
- viability, T/C [26]: 60.6%
- viability, T/C [27]: 43.9%
- viability, T/C [28]: 32.9%
- viability, T/C [29]: 33%
- viability, T/C [30]: 30.7%
- viability, T/C [31]: 96.7%
- viability, T/C [32]: 60%
- viability, T/C [33]: 58.1%
- viability, T/C [34]: 37.9%
- viability, T/C [35]: 38.9%
- viability, T/C [36]: 28.2%

Compound: CCc1cc2c(N3CCc4c(cc(Cn5ccnc5)cc4-c4cn(C)nc4C(F)(F)F)C3=O)cc(C)nc2c(OC)n1 + Cc1cccc(N(C)C(=O)C2C(O)CCN2c2nc(C)cc(C(F)(F)F)c2C#N)c1
- IC50 (second compound 0.0316 µM): 7.4 µM
- IC50 (second compound 0.1 µM): 8.3 µM
- IC50 (second compound 0.316 µM): > 10 µM
- IC50 (second compound 1 µM): 7.69 µM
- IC50 (second compound 3.16 µM): > 10 µM
- IC50 (second compound 10 µM): 8.25 µM
- viability, T/C [1]: 87.4%
- viability, T/C [2]: 95.6%
- viability, T/C [3]: 91.7%
- viability, T/C [4]: 91.7%
- viability, T/C [5]: 72.8%
- viability, T/C [6]: 41.8%
- viability, T/C [7]: 86.1%
- viability, T/C [8]: 102%
- viability, T/C [9]: 94.5%
- viability, T/C [10]: 97.6%
- viability, T/C [11]: 72.8%
- viability, T/C [12]: 45.6%
- viability, T/C [13]: 81.3%
- viability, T/C [14]: 89.2%
- viability, T/C [15]: 98.8%
- viability, T/C [16]: 83.8%
- viability, T/C [17]: 69.9%
- viability, T/C [18]: 53%
- viability, T/C [19]: 89.1%
- viability, T/C [20]: 88.3%
- viability, T/C [21]: 106%
- viability, T/C [22]: 92.5%
- viability, T/C [23]: 71.1%
- viability, T/C [24]: 43.8%
- viability, T/C [25]: 99.8%
- viability, T/C [26]: 94.4%
- viability, T/C [27]: 102%
- viability, T/C [28]: 84.8%
- viability, T/C [29]: 74.6%
- viability, T/C [30]: 58.3%
- viability, T/C [31]: 107%
- viability, T/C [32]: 110%
- viability, T/C [33]: 93%
- viability, T/C [34]: 95.3%
- viability, T/C [35]: 69.9%
- viability, T/C [36]: 45.9%
